Measurements reported in ChEMBL document CHEMBL1201862, “PubChem BioAssay data set” (2004).
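These data come from cells grown in 96-well plates and exposed to compound for 48 hours at five concentrations. GI50 marks 50% less growth.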 Calls of active or inactive are those of the source. Cut-off read from the data, not from the text of the source: active = GI50 up to about 1.1 µM and inactive = higher.

How the values were obtained:
Test in all cases: NCI anticancer screen, dose series, 48 h
786-0 = tested on: 786-0
A498 = tested on: A498
A549 = tested on: A549
ACHN = tested on: ACHN
CAKI-1 = tested on: CAKI-1
COLO 205 = tested on: COLO 205
DLD-1 = tested on: DLD-1
DMS-114 = tested on: DMS-114
DMS-273 = tested on: DMS-273
EKVX = tested on: EKVX
HCC 2998 = tested on: HCC 2998
HCT-116 = tested on: HCT-116
HCT-15 = tested on: HCT-15
HL-60 = tested on: HL-60
HOP-18 = tested on: HOP-18
HOP-62 = tested on: HOP-62
HOP-92 = tested on: HOP-92
HT-29 = tested on: HT-29
IGROV-1 = tested on: IGROV-1
K562 = tested on: K562
KM-20L2 = tested on: KM-20L2
KM12 = tested on: KM12
LOX IMVI = tested on: LOX IMVI
LXFL 529 = tested on: LXFL 529
M14 = tested on: M14
M19-MEL = tested on: M19-MEL
Malme-3M = tested on: Malme-3M
NCI-H226 = tested on: NCI-H226
NCI-H23 = tested on: NCI-H23
NCI-H460 = tested on: NCI-H460
NCI-H522 = tested on: NCI-H522
OVCAR-3 = tested on: OVCAR-3
OVCAR-4 = tested on: OVCAR-4
OVCAR-5 = tested on: OVCAR-5
OVCAR-8 = tested on: OVCAR-8
RXF 393 = tested on: RXF 393
SF-268 = tested on: SF-268
SF-295 = tested on: SF-295
SF-539 = tested on: SF-539
SK-MEL-28 = tested on: SK-MEL-28
SK-MEL-2 = tested on: SK-MEL-2
SK-MEL-5 = tested on: SK-MEL-5
SN12C = tested on: SN12C
SNB-19 = tested on: SNB-19
SNB-75 = tested on: SNB-75
SNB-78 = tested on: SNB-78
SW-620 = tested on: SW-620
TK-10 = tested on: TK-10
U-251 = tested on: U-251
UACC-257 = tested on: UACC-257
UACC-62 = tested on: UACC-62
UO-31 = tested on: UO-31
XF498 = tested on: XF498
CCRF-CEM = tested on: CCRF-CEM
MOLT-4 = tested on: MOLT-4
RPMI-8226 = tested on: RPMI-8226
SK-OV-3 = tested on: SK-OV-3
SR = tested on: SR

## C/C(CCn1[nH]c(=O)ccc1=O)=N\NC(=O)C(N)=O
786-0
  GI50: > 100 µM (inactive)
A498
  GI50: > 100 µM (inactive)
A549
  GI50: > 100 µM (inactive)
ACHN
  GI50: > 100 µM (inactive)
CAKI-1
  GI50: > 100 µM (inactive)
COLO 205
  GI50: > 100 µM (inactive)
DLD-1
  GI50: > 100 µM (inactive)
DMS-114
  GI50: > 100 µM (inactive)
DMS-273
  GI50: > 100 µM (inactive)
EKVX
  GI50: > 100 µM (inactive)
HCC 2998
  GI50: > 100 µM (inactive)
HCT-116
  GI50: > 100 µM (inactive)
HCT-15
  GI50: > 100 µM
HL-60
  GI50: > 100 µM (inactive)
HOP-18
  GI50: > 100 µM (inactive)
HOP-62
  GI50: > 100 µM (inactive)
HOP-92
  GI50: > 100 µM (inactive)
HT-29
  GI50: > 100 µM (inactive)
IGROV-1
  GI50: > 100 µM (inactive)
K562
  GI50: > 100 µM (inactive)
KM-20L2
  GI50: > 100 µM (inactive)
KM12
  GI50: > 100 µM (inactive)
LOX IMVI
  GI50: > 100 µM (inactive)
LXFL 529
  GI50: > 100 µM (inactive)
M14
  GI50: > 100 µM (inactive)
M19-MEL
  GI50: > 100 µM (inactive)
Malme-3M
  GI50: > 100 µM (inactive)
NCI-H226
  GI50: > 100 µM (inactive)
NCI-H23
  GI50: > 100 µM (inactive)
NCI-H460
  GI50: > 100 µM (inactive)
NCI-H522
  GI50: > 100 µM (inactive)
OVCAR-3
  GI50: > 100 µM (inactive)
OVCAR-4
  GI50: > 100 µM (inactive)
OVCAR-5
  GI50: > 100 µM (inactive)
OVCAR-8
  GI50: > 100 µM (inactive)
RXF 393
  GI50: > 100 µM (inactive)
SF-268
  GI50: > 100 µM (inactive)
SF-295
  GI50: > 100 µM (inactive)
SF-539
  GI50: > 100 µM (inactive)
SK-MEL-28
  GI50: > 100 µM (inactive)
SK-MEL-2
  GI50: > 100 µM (inactive)
SK-MEL-5
  GI50: > 100 µM (inactive)
SN12C
  GI50: > 100 µM (inactive)
SNB-19
  GI50: > 100 µM (inactive)
SNB-75
  GI50: > 100 µM (inactive)
SNB-78
  GI50: > 100 µM (inactive)
SW-620
  GI50: > 100 µM (inactive)
TK-10
  GI50: > 100 µM (inactive)
U-251
  GI50: > 100 µM (inactive)
UACC-257
  GI50: > 100 µM (inactive)
UACC-62
  GI50: > 100 µM (inactive)
UO-31
  GI50: > 100 µM (inactive)
XF498
  GI50: > 100 µM (inactive)

## Clc1ccccc1C1N2CCCCC2[C@@H]2c3[nH]c4ccccc4c3CCN12 (some centres not stated)
786-0
  GI50: 21.2 µM (inactive)
A498
  GI50: 13.9 µM (inactive)
A549
  GI50: > 10 µM (inactive)
ACHN
  GI50: 16.2 µM (inactive)
CAKI-1
  GI50: > 10 µM (inactive)
CCRF-CEM
  GI50: 19.1 µM (inactive)
COLO 205
  GI50: 19.3 µM (inactive)
DLD-1
  GI50: 18.9 µM (inactive)
DMS-114
  GI50: 20 µM (inactive)
DMS-273
  GI50: 27.4 µM (inactive)
EKVX
  GI50: 40.1 µM (inactive)
HCC 2998
  GI50: 18.6 µM (inactive)
HCT-116
  GI50: 18.5 µM (inactive)
HCT-15
  GI50: 16.2 µM
HL-60
  GI50: 19.5 µM (inactive)
HOP-18
  GI50: 42 µM (inactive)
HOP-62
  GI50: 29.9 µM (inactive)
HOP-92
  GI50: 41.7 µM (inactive)
HT-29
  GI50: 17.1 µM (inactive)
IGROV-1
  GI50: 35.1 µM (inactive)
K562
  GI50: 14.3 µM (inactive)
KM-20L2
  GI50: 18.6 µM (inactive)
LXFL 529
  GI50: 31 µM (inactive)
M14
  GI50: 17.3 µM (inactive)
M19-MEL
  GI50: 14.7 µM (inactive)
MOLT-4
  GI50: 31 µM (inactive)
Malme-3M
  GI50: 4.84 µM (inactive)
NCI-H23
  GI50: 23.6 µM (inactive)
NCI-H460
  GI50: 19.4 µM (inactive)
OVCAR-3
  GI50: 16.2 µM (inactive)
OVCAR-4
  GI50: 19.1 µM (inactive)
OVCAR-5
  GI50: 20.9 µM (inactive)
OVCAR-8
  GI50: 19.8 µM (inactive)
RPMI-8226
  GI50: 23.8 µM (inactive)
RXF 393
  GI50: 22 µM (inactive)
SF-268
  GI50: 17.9 µM (inactive)
SF-295
  GI50: 25.4 µM (inactive)
SF-539
  GI50: 15.2 µM (inactive)
SK-MEL-28
  GI50: 18.5 µM (inactive)
SK-MEL-2
  GI50: 16.7 µM (inactive)
SK-MEL-5
  GI50: > 10 µM (inactive)
SK-OV-3
  GI50: 21.6 µM (inactive)
SN12C
  GI50: 16.7 µM (inactive)
SNB-19
  GI50: 23 µM (inactive)
SNB-75
  GI50: 32.4 µM (inactive)
SNB-78
  GI50: 25.4 µM (inactive)
SW-620
  GI50: 17.3 µM (inactive)
TK-10
  GI50: 23.8 µM (inactive)
U-251
  GI50: 17.7 µM (inactive)
UACC-257
  GI50: 18.7 µM (inactive)
UACC-62
  GI50: 15 µM (inactive)
UO-31
  GI50: 19.5 µM (inactive)
XF498
  GI50: 19.4 µM (inactive)

## Nc1nc2c(ncn2CC(CO)CC(c2ccccc2)P(=O)(O)O)c(=O)[nH]1 (configuration not stated)
786-0
  GI50: > 100 µM (inactive)
A498
  GI50: > 100 µM (inactive)
A549
  GI50: > 100 µM (inactive)
ACHN
  GI50: > 100 µM (inactive)
CAKI-1
  GI50: > 100 µM (inactive)
CCRF-CEM
  GI50: > 100 µM (inactive)
COLO 205
  GI50: > 100 µM (inactive)
DLD-1
  GI50: > 100 µM (inactive)
DMS-114
  GI50: > 100 µM (inactive)
DMS-273
  GI50: > 100 µM (inactive)
EKVX
  GI50: > 100 µM (inactive)
HCC 2998
  GI50: > 100 µM (inactive)
HCT-116
  GI50: > 100 µM (inactive)
HCT-15
  GI50: > 100 µM
HL-60
  GI50: > 100 µM (inactive)
HOP-18
  GI50: > 100 µM (inactive)
HOP-62
  GI50: > 100 µM (inactive)
HOP-92
  GI50: > 100 µM (inactive)
HT-29
  GI50: > 100 µM (inactive)
IGROV-1
  GI50: > 100 µM (inactive)
K562
  GI50: > 100 µM (inactive)
KM-20L2
  GI50: > 100 µM (inactive)
KM12
  GI50: > 100 µM (inactive)
LOX IMVI
  GI50: > 100 µM (inactive)
LXFL 529
  GI50: > 100 µM (inactive)
M14
  GI50: > 100 µM (inactive)
M19-MEL
  GI50: > 100 µM (inactive)
MOLT-4
  GI50: > 100 µM (inactive)
Malme-3M
  GI50: > 100 µM (inactive)
NCI-H226
  GI50: > 100 µM (inactive)
NCI-H23
  GI50: > 100 µM (inactive)
NCI-H460
  GI50: > 100 µM (inactive)
NCI-H522
  GI50: > 100 µM (inactive)
OVCAR-3
  GI50: > 100 µM (inactive)
OVCAR-5
  GI50: > 100 µM (inactive)
OVCAR-8
  GI50: > 100 µM (inactive)
RPMI-8226
  GI50: > 100 µM (inactive)
RXF 393
  GI50: > 100 µM (inactive)
SF-268
  GI50: > 100 µM (inactive)
SF-295
  GI50: > 100 µM (inactive)
SF-539
  GI50: > 100 µM (inactive)
SK-MEL-28
  GI50: > 100 µM (inactive)
SK-MEL-2
  GI50: > 100 µM (inactive)
SK-MEL-5
  GI50: > 100 µM (inactive)
SK-OV-3
  GI50: > 100 µM (inactive)
SN12C
  GI50: > 100 µM (inactive)
SNB-19
  GI50: > 100 µM (inactive)
SNB-78
  GI50: > 100 µM (inactive)
SR
  GI50: > 100 µM (inactive)
SW-620
  GI50: > 100 µM (inactive)
TK-10
  GI50: > 100 µM (inactive)
U-251
  GI50: > 100 µM (inactive)
UACC-257
  GI50: > 100 µM (inactive)
UACC-62
  GI50: > 100 µM (inactive)
UO-31
  GI50: > 100 µM (inactive)
XF498
  GI50: > 100 µM (inactive)
